# Measurements taken from patent publication US20020019421A1, “Compositions and therapy for substance addiction” (priority 2000, published 2002).
# Where “and” joins values, the source holds several entries; their conditions need not be identical. Identical values can stand only once.
# Tests used:
# smoking cessation = details: cited from earlier work
# [1] = tested on: subjects addicted to chronic cigarette smoking; assay: Experiment One: prospective open trial, self-reported cigarette consumption after quit day
# Procedure: An experimental clinical trial was performed to assess the effect of selegiline alone and in combination with co-administration of nicotine.
# In this prospective open trial subjects addicted to chronic cigarette smoking were administered either oral selegiline tablets (Jumex, Janssen, Belgium) 5 mg. b.i.d. or administered, for subjects 8 and 9, combined co-administration of both oral selegiline and nicotine replacement therapy via transdermal patch. Subjects were then monitored for their level of tobacco product consumption during the course of the next 8 weeks. The study protocol relied on the subjective report of the patient for measurement of the therapy outcome, i.e. reporting of level of cigarette consumption was elicited from the participating subjects at weekly intervals intervals throughout the course of the study, unless the patient was using nictotine replacement therapy. Initial, trial entry levels of craving were determined by administration of the Fagerström Tolerance Score exam, while initial level of mood was monitored by administering the Beck Depression Inventory.
# Following one week on the medication, the subjects were instructed to quit smoking on “quit day”, as predetermined at the initiation of the study.
# [2] = tested on: striatal monoamine oxidase; assay: Inhibition of striatal monoamine oxidase in mice; type: in vivo
# Procedure: (§1) The inhibitor of monoamine oxidase inhibitor is administered in an effective amount, which is that amount necessary to alleviate, reduce, attenuate, or eliminate the symptoms associated with the addictive disorder, disorder or condition to be treated or to slow disease progression. The monoamine oxidase inhibitor can also be administered prophylactically, in order to prevent symptoms associated with the addicitve disorder or disease, or to delay onset of symptoms associated withdrawal or abstinence. If more than one inhibitor of monoamine oxidase inhibitor is used, the effective amount is that amount of the combination of inhibitor of monoamine oxidase inhibitors that is necessary to alleviate, reduce, eliminate, prevent, or delay onset of the symptoms associated with withdrawal or abstinence. The effective amount will be determined on an individual basis, and will be based in part, on consideration of the particular monoamine oxidase inhibitor, the individual's size and gender, the severity of the symptoms to be treated, the result sought, and the disease, disorder or condition to be treated or prevented. […] The effective amount can be determined by one of ordinary skill in the art, employing such factors and using no more than routine experimentation.
# [3] = tested on: intestinal monoamine oxidase; assay: Intestinal monoamine oxidase activity maintained in mice; type: in vivo; details: 0.6 mg/kg
# Procedure: as §1
smiles,measurement,setting,value
CN1CCC[C@H]1c1cccnc1 [nicotine],"success rate, nicotine patch alone","smoking cessation; N. Eng J Med 1999, 340:685-91",9.8%
same,"success rate for smoking cessation, nicotine transdermal patch as sole therapy",smoking cessation; current best accepted / known efficacy,about 20%
same,cigarettes consumed per week,"[1]; week 1 from quit day, oral selegiline 5 mg b.i.d. and/or nicotine transdermal patch",0 Cig/wk
same,cigarettes consumed per week,[1]; week 2 from quit day,0 Cig/wk
same,cigarettes consumed per week,[1]; week 3 from quit day,0 Cig/wk
same,cigarettes consumed per week,[1]; week 4 from quit day,0 Cig/wk
same,cigarettes consumed per week,[1]; week 5 from quit day,0 Cig/wk
same,cigarettes consumed per week,[1]; week 6 from quit day,21 Cig/wk
same,cigarettes consumed per week,[1]; week 7 from quit day,35 Cig/wk
same,cigarettes consumed per week,[1]; week 8 from quit day,60 Cig/wk
"C#CCN(C)[C@H](C)Cc1ccccc1 [selegiline, (R)-(−)-N,2-dimethyl-N-2-propynylphenethylamine]",efficacy: subjects treated successfully (abstaining or significantly reducing cigarette smoking),"[1]; during treatment, Table 2",about 30%
same,outcome in words: effect on cigarette smoking,"[1]; open trial, 8 weeks",effective treatment for substance addiction
same,cigarettes consumed per week,"[1]; week 1 from quit day, oral selegiline 5 mg b.i.d. and/or nicotine transdermal patch, listed as S",0 Cig/wk (3×) and 21 Cig/wk and 140 Cig/wk and 210 Cig/wk and 35 Cig/wk
same,cigarettes consumed per week,"[1]; week 2 from quit day, listed as S",0 Cig/wk (3×) and 21 Cig/wk and 70 Cig/wk
same,cigarettes consumed per week,"[1]; week 3 from quit day, listed as S",0 Cig/wk (2×) and 25 Cig/wk and 3 Cig/wk
same,cigarettes consumed per week,"[1]; week 4 from quit day, listed as S",0 Cig/wk (3×) and 25 Cig/wk
same,cigarettes consumed per week,"[1]; week 5 from quit day, listed as S",0 Cig/wk (2×) and 25 Cig/wk
same,cigarettes consumed per week,[1]; week 6 from quit day,0 Cig/wk
same,cigarettes consumed per week,"[1]; week 7 from quit day, listed as S",0 Cig/wk (2×) and 21 Cig/wk
same,cigarettes consumed per week,"[1]; week 8 from quit day, listed as S",0 Cig/wk and 21 Cig/wk
same,cigarettes consumed per week,[1]; week 9 from quit day,21 Cig/wk
C#CCN(C)CCCOc1ccc(Cl)cc1Cl [clorgyline],preferred effective amount to inhibit 90% of striatal monoamine oxidase while maintaining 50% of intestinal activity,[2],0.6 mg/kg
same,inhibition of striatal monoamine oxidase,[2]; 0.6 mg/kg,90%
same,intestinal monoamine oxidase activity maintained,[3],50%
